From patent publication US20060069132A1, “Azolecarboxamide herbicides” (priority 2004, published 2006)

What was measured:
barnyardgrass [1] = assay: Test B pre-/postemergence herbicide test; format: in vivo, Echinochloa crus-galli
In short: (§1)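 Test chemicals in a non-phytotoxic solvent mixture with surfactant were applied preemergence to seeded species and postemergence to plants 2-18 cm tall (1- to 4-leaf stage); rice and barnyardgrass were also tested in a flooded paddy at the 2-leaf stage. Visual rating versus controls after 13-15 days in greenhouse, scale 0 (no effect) to 100 (complete control).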

Surinam grass = assay: Test B pre-/postemergence herbicide test; format: in vivo, Urochloa decumbens; settings: for Surinam Grass plant response rating: postemergence
In short: (§2)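 Pre: seeds sown, then sprayed. Post: 1–4-leaf plants (2–18 cm) sprayed at the same time. Paddy: flooded, treated at 2-leaf stage. Formulation: non-phytotoxic solvent with surfactant. Greenhouse 13–15 days; visual 0–100 score relative to controls.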

cocklebur = assay: Test B pre-/postemergence herbicide test; format: in vivo, Xanthium strumarium
In short: as §1

giant foxtail = assay: Test B pre-/postemergence herbicide test; format: in vivo, Setaria faberi
In short: as §2

lambsquarters = assay: Test B pre-/postemergence herbicide test; format: in vivo, Chenopodium album; settings: for Lambsquarters plant response rating: postemergence
In short: as §2

morningglory = assay: Test B pre-/postemergence herbicide test; format: in vivo, Ipomoea coccinea; settings: for Morningglory plant response rating: postemergence
In short: as §1

pigweed = assay: Test B pre-/postemergence herbicide test; format: in vivo, Amaranthus retroflexus; settings: for Pigweed plant response rating: postemergence
In short: as §2

velvetleaf = assay: Test B pre-/postemergence herbicide test; format: in vivo, Abutilon theophrasti; settings: for Velvetleaf plant response rating: postemergence
In short: as §2

blackgrass = assay: Test B postemergence herbicide test; format: in vivo, Alopecurus myosuroides; settings: for Blackgrass plant response rating: postemergence; for Plant response rating, Blackgrass: Postemergence, visual rating after 13 to 15 days
In short: (§3)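 Paddy species grown to the 2-leaf stage under flooding; blackgrass sprayed postemergence at 2–18 cm (1- to 4-leaf stage). Plants kept in a greenhouse for 13 to 15 days, then visually rated against controls on 0 (no effect) to 100 (complete control).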

wheat = assay: Test B postemergence herbicide test; format: in vivo, Triticum aestivum; parameters: key to Wheat plant response rating: 0 = no effect, 100 = complete control; settings: for Wheat plant response rating: postemergence; for Plant response rating, Wheat: Postemergence, visual rating after 13 to 15 days
In short: (§4)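 Scale 0–100: zero equals no visible effect, 100 complete control, judged by eye relative to controls. Timing: 13 to 15 days in greenhouse post-treatment. Growth stage at spraying: two leaves (paddy) or one to four leaves, 2–18 cm (postemergence).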

wild oat = assay: Test B postemergence herbicide test; format: in vivo, Avena fatua; settings: for Oat, Wild plant response rating: postemergence; for Plant response rating, Oat, Wild: Postemergence, visual rating after 13 to 15 days
In short: as §4

rice = assay: Test B flooded paddy test; format: in vivo, Oryza sativa; settings: 1000 g ai/ha, scale 0 to 100 (0 no effect, 100 complete control)
In short: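 Plants grow to 1- to 4-leaf stage (2–18 cm) for postemergence spraying, or to 2-leaf stage for the paddy test. Formulated compound is applied. Greenhouse holding lasts 13–15 days. Response is scored visually relative to controls, 0 no effect to 100 complete control; a dash means no result.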

[2] = system: small flower umbrella sedge; assay: Test B flooded paddy test; format: in vivo, Cyperus difformis; settings: 1000 g ai/ha, scale 0 to 100 (0 no effect, 100 complete control)
In short: as §3

ducksalad = assay: Test B flooded paddy test; format: in vivo, Heteranthera limosa; settings: 1000 g ai/ha, scale 0 to 100 (0 no effect, 100 complete control)
In short: as §3

barnyardgrass [3] = assay: Test B flooded paddy test; format: in vivo, Echinochloa crus-galli; settings: 1000 g ai/ha, scale 0 to 100 (0 no effect, 100 complete control)
In short: as §3

[4] = 125 g ai/ha, 0 = no effect, 100 = complete control, preemergence
[5] = 500 g ai/ha, visual rating, 0 = no effect, 100 = complete control, preemergence
[6] = postemergence, 125 g ai/ha, visual rating, scale 0 (no effect) to 100 (complete control)
[7] = postemergence, 500 g ai/ha, scale 0 to 100, 0 is no effect, 100 is complete control
[8] = 125 g ai/ha, visual rating, scale 0 (no effect) to 100 (complete control)
[9] = 500 g ai/ha, scale 0 to 100, 0 is no effect, 100 is complete control
[10] = 500 g ai/ha, visual rating 0-100, 0 no effect, 100 complete control, preemergence
[11] = Postemergence, 500 g ai/ha, visual rating after 13 to 15 days, scale 0 (no effect) to 100 (complete control)
[12] = preemergence, 125 g ai/ha, 0 to 100 scale, 0 is no effect, 100 is complete control
[13] = 500 g ai/ha, scale 0 (no effect) to 100 (complete control)
[14] = postemergence, 500 g ai/ha, visual rating, scale 0 (no effect) to 100 (complete control)
[15] = 500 g ai/ha, visual rating, scale 0 (no effect) to 100 (complete control)
[16] = Preemergence, 500 g ai/ha, scale 0 to 100

CCn1nc(C(C)(C)C)cc1C(=O)Nc1cccc(OC(F)(F)F)c1 [Compound 272]
60: Surinam Grass plant response rating (Surinam grass; [9]) | Blackgrass plant response rating (blackgrass; [8]) | Oat, Wild plant response rating (wild oat; [8])
30: Foxtail, Giant plant response rating (0 to 100 scale) (giant foxtail; [4]) | Foxtail, Giant plant response rating (giant foxtail; [7]) | Plant response rating, Morningglory (morningglory; [5]) | Wheat plant response rating (wheat; [9])
100: Lambsquarters plant response rating (0 to 100 scale) (lambsquarters; [4]) | Plant response rating, Lambsquarters (lambsquarters; [5]) | Lambsquarters plant response rating (lambsquarters; [8]) | Lambsquarters plant response rating (lambsquarters; [9]) | Morningglory plant response rating (morningglory; [9]) | Plant response rating, Pigweed (pigweed; [5]) | Pigweed plant response rating (pigweed; [8]) | Pigweed plant response rating (pigweed; [9]) | Velvetleaf plant response rating (velvetleaf; [9]) | Blackgrass plant response rating (blackgrass; [9])
90: Plant response rating, Barnyardgrass (barnyardgrass [1]; [5]) | Cocklebur plant response rating (cocklebur; [7]) | Plant response rating, Foxtail, Giant (giant foxtail; [5]) | Morningglory plant response rating (morningglory; [8]) | Pigweed plant response rating (0 to 100 scale) (pigweed; [4]) | Oat, Wild plant response rating (wild oat; [9])
50: Plant response rating, Velvetleaf (velvetleaf; [5]) | Velvetleaf plant response rating (velvetleaf; [8]) | Barnyardgrass plant response rating (barnyardgrass [3])
70: Plant response rating, Surinam Grass (Surinam grass; [5])
10: Barnyardgrass plant response rating (0 to 100 scale) (barnyardgrass [1]; [4]) | Surinam Grass plant response rating (0 to 100 scale) (Surinam grass; [4]) | Surinam Grass plant response rating (Surinam grass; [8]) | Foxtail, Giant plant response rating (giant foxtail; [6]) | Velvetleaf plant response rating (0 to 100 scale) (velvetleaf; [4])
0: Cocklebur plant response rating (0 to 100 scale) (cocklebur; [4]) | Plant response rating, Cocklebur (cocklebur; [5]) | Morningglory plant response rating (0 to 100 scale) (morningglory; [4])
20: Barnyardgrass plant response rating (barnyardgrass [1]; [6]) | Wheat plant response rating (wheat; [8])
80: Barnyardgrass plant response rating (barnyardgrass [1]; [7]) | Sedge, Umbrella plant response rating [2] | Ducksalad plant response rating (ducksalad)
40: Cocklebur plant response rating (cocklebur; [6]) | Rice plant response rating (rice)

CCn1nc(C(C)(C)C)cc1C(=O)Nc1cccc(C(C)=NO)c1 [Compound 108]
80: Plant response rating, Barnyardgrass (barnyardgrass [1]; [12]) | Plant response rating, Surinam Grass (Surinam grass; [10]) | Pigweed plant response rating (pigweed; [8]) | Plant response rating, Velvetleaf (velvetleaf; [12]) | Barnyardgrass plant response rating (barnyardgrass [3]; visual rating, 13 to 15 days)
100: Plant response rating, Foxtail, Giant (giant foxtail; [10]) | Plant response rating, Lambsquarters (lambsquarters; [10]) | Plant response rating, Lambsquarters (lambsquarters; [11]) | Plant response rating, Lambsquarters (lambsquarters; [12]) | Plant response rating, Morningglory (morningglory; [11]) | Plant response rating, Pigweed (pigweed; [10]) | Plant response rating, Pigweed (pigweed; [11]) | Plant response rating, Velvetleaf (velvetleaf; [10])
20: Plant response rating, Blackgrass (blackgrass; [13]) | Plant response rating, Wheat (wheat; [13]) | Oat, Wild plant response rating (wild oat; [8])
90: Plant response rating, Barnyardgrass (barnyardgrass [1]; [10]) | Plant response rating, Cocklebur (cocklebur; [11]) | Plant response rating, Foxtail, Giant (giant foxtail; [12]) | Lambsquarters plant response rating (lambsquarters; [8]) | Plant response rating, Pigweed (pigweed; [12]) | Sedge, Umbrella plant response rating ([2]; visual rating, 13 to 15 days) | Ducksalad plant response rating (ducksalad; visual rating, 13 to 15 days)
30: Plant response rating, Cocklebur (cocklebur; [10]) | Plant response rating, Foxtail, Giant (giant foxtail; [11]) | Morningglory plant response rating (morningglory; [8])
0: Blackgrass plant response rating (blackgrass; [8])
50: Plant response rating, Surinam Grass (Surinam grass; [12]) | Plant response rating, Morningglory (morningglory; [12]) | Velvetleaf plant response rating (velvetleaf; [8]) | Plant response rating, Oat, Wild (wild oat; [13])
10: Barnyardgrass plant response rating (barnyardgrass [1]; [6]) | Plant response rating, Surinam Grass (Surinam grass; [11]) | Surinam Grass plant response rating (Surinam grass; [8]) | Plant response rating, Cocklebur (cocklebur; [12]) | Foxtail, Giant plant response rating (giant foxtail; [6]) | Wheat plant response rating (wheat; [8])
70: Plant response rating, Barnyardgrass (barnyardgrass [1]; [11]) | Cocklebur plant response rating (cocklebur; [6]) | Plant response rating, Morningglory (morningglory; [10]) | Plant response rating, Velvetleaf (velvetleaf; [11]) | Rice plant response rating (rice; visual rating, 13 to 15 days)

C=CCNC(=O)c1cccc(NC(=O)c2sc(C(C)(C)C)nc2C)c1 [Compound 202]
20: Barnyardgrass plant response rating (0 to 100 scale) (barnyardgrass [1]; [4]) | Morningglory plant response rating (morningglory; [8]) | Plant response rating, Velvetleaf (velvetleaf; [10])
50: Lambsquarters plant response rating (lambsquarters; [8]) | Lambsquarters plant response rating (lambsquarters; [15]) | Sedge, Umbrella plant response rating ([2]; visual rating, 13 to 15 days)
100: Plant response rating, Lambsquarters (lambsquarters; [10])
10: Surinam Grass plant response rating (Surinam grass; [8]) | Surinam Grass plant response rating (Surinam grass; [15]) | Plant response rating, Cocklebur (cocklebur; [10]) | Foxtail, Giant plant response rating (0 to 100 scale) (giant foxtail; [4]) | Foxtail, Giant plant response rating (giant foxtail; [6]) | Foxtail, Giant plant response rating (giant foxtail; [14]) | Pigweed plant response rating (0 to 100 scale) (pigweed; [4]) | Velvetleaf plant response rating (0 to 100 scale) (velvetleaf; [4]) | Velvetleaf plant response rating (velvetleaf; [8]) | Oat, Wild plant response rating (wild oat; [8]) | Oat, Wild plant response rating (wild oat; [15])
40: Cocklebur plant response rating (cocklebur; [14]) | Morningglory plant response rating (morningglory; [15]) | Pigweed plant response rating (pigweed; [15]) | Barnyardgrass plant response rating (barnyardgrass [3]; visual rating, 13 to 15 days)
60: Plant response rating, Surinam Grass (Surinam grass; [10]) | Ducksalad plant response rating (ducksalad; visual rating, 13 to 15 days)
90: Plant response rating, Barnyardgrass (barnyardgrass [1]; [10]) | Plant response rating, Foxtail, Giant (giant foxtail; [10]) | Plant response rating, Pigweed (pigweed; [10])
30: Cocklebur plant response rating (cocklebur; [6]) | Lambsquarters plant response rating (0 to 100 scale) (lambsquarters; [4]) | Plant response rating, Morningglory (morningglory; [10]) | Pigweed plant response rating (pigweed; [8]) | Velvetleaf plant response rating (velvetleaf; [15]) | Rice plant response rating (rice; visual rating, 13 to 15 days)
0: Barnyardgrass plant response rating (barnyardgrass [1]; [6]) | Barnyardgrass plant response rating (barnyardgrass [1]; [14]) | Surinam Grass plant response rating (0 to 100 scale) (Surinam grass; [4]) | Cocklebur plant response rating (0 to 100 scale) (cocklebur; [4]) | Morningglory plant response rating (0 to 100 scale) (morningglory; [4]) | Blackgrass plant response rating (blackgrass; [8]) | Blackgrass plant response rating (blackgrass; [15]) | Wheat plant response rating (wheat; [8]) | Wheat plant response rating (wheat; [15])

CCn1nc(C(C)(C)C)cc1C(=O)Nc1ccc(F)c(C(=O)NCCF)c1 [Compound 60]
20: Plant response rating, Surinam Grass (Surinam grass; [11]) | Plant response rating, Foxtail, Giant (giant foxtail; [11]) | Plant response rating, Morningglory (morningglory; [11]) | Velvetleaf plant response rating (velvetleaf; [8]) | Plant response rating, Oat, Wild (wild oat; [13]) | Oat, Wild plant response rating (wild oat; [8])
10: Plant response rating, Barnyardgrass (barnyardgrass [1]; [11]) | Barnyardgrass plant response rating (barnyardgrass [1]; [6]) | Surinam Grass plant response rating (Surinam grass; [8]) | Plant response rating, Surinam Grass (Surinam grass; [12]) | Foxtail, Giant plant response rating (giant foxtail; [6]) | Morningglory plant response rating (morningglory; [8]) | Plant response rating, Morningglory (morningglory; [12]) | Plant response rating, Velvetleaf (velvetleaf; [12])
50: Plant response rating, Barnyardgrass (barnyardgrass [1]; [12]) | Rice plant response rating (rice; visual rating, 13 to 15 days)
80: Lambsquarters plant response rating (lambsquarters; [8])
100: Barnyardgrass plant response rating (barnyardgrass [1]; [16]) | Foxtail, Giant plant response rating (giant foxtail; [16])
90: Plant response rating, Lambsquarters (lambsquarters; [11]) | Plant response rating, Lambsquarters (lambsquarters; [12]) | Plant response rating, Pigweed (pigweed; [12])
0: Cocklebur plant response rating (cocklebur; [16]) | Plant response rating, Cocklebur (cocklebur; [12]) | Plant response rating, Blackgrass (blackgrass; [13]) | Blackgrass plant response rating (blackgrass; [8]) | Plant response rating, Wheat (wheat; [13]) | Wheat plant response rating (wheat; [8])
60: Plant response rating, Velvetleaf (velvetleaf; [11]) | Sedge, Umbrella plant response rating ([2]; visual rating, 13 to 15 days) | Barnyardgrass plant response rating (barnyardgrass [3]; visual rating, 13 to 15 days)
70: Plant response rating, Cocklebur (cocklebur; [11]) | Plant response rating, Pigweed (pigweed; [11]) | Pigweed plant response rating (pigweed; [8]) | Ducksalad plant response rating (ducksalad; visual rating, 13 to 15 days)
40: Cocklebur plant response rating (cocklebur; [6]) | Plant response rating, Foxtail, Giant (giant foxtail; [12])
